Test results reported in patent publication US20250177382A1, “NEK7 INHIBITORS” (Halia Therapeutics, Inc., priority 2021, published 2025).

Legend:
[1] = molecular target: T1, full-length recombinant human NEK7 (Homo sapiens, UniProt Q8TDX7); experiment: NEK7 enzymatic assay; assay type: biochemical; details: casein substrate, [32P]-ATP, radiometric P81 filter assay
T1 construct: full-length recombinant human NEK7; GST (N); purchased SignalChem N09-10G; host or cells: Sf9 insect cells (baculovirus)
T1 sequence (Q8TDX7 whole entry): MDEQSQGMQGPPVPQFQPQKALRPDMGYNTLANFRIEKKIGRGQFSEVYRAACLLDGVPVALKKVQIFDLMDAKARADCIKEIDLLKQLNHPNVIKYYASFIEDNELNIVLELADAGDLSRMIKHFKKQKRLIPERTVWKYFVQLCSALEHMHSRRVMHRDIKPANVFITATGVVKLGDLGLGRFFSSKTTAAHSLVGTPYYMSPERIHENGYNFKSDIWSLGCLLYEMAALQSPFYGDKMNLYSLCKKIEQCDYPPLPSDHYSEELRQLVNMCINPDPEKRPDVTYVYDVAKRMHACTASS
Procedure: Casein substrate (from bovine milk, hydrolyzed and partially dephosphorylated mixture of α, β, and κ caseins, obtained from Sigma Aldrich, catalogue #C4765, diluted in distilled water to a final concentration of 1 mg/mL, assay concentration 20 μM) and full-length recombinant human NEK7 (expressed by baculovirus in Sf9 insect cells using a N-terminal GST tag, obtained from SignalChem, catalogue #N09-10G, […], assay concentration 70 nM) were mixed in assay buffer (20 mM Hepes pH 7.5, 10 mM MgCl2, 1 mM EGTA, 0.02% Brij35, 0.02 mg/mL BSA, 0.1 mM […], 2 mM DTT, 1% DMSO). Compounds of interest (in DMSO, serial 3-fold dilution from 10 μM to 0.5 nM) or control (1% DMSO) were dispensed into the kinase reaction mixture by Acoustic technology (Echo550; nanoliter range). After incubation at room temperature for 20 minutes, the kinase reaction was initiated by addition of [^32P]-ATP (Specific activity 10 μUCi/μl) and the mixture was incubated at room temperature for 2 hours. The reaction was then stopped by spotting the reaction mixture on strips of phosphocellulose P81 paper. Following washing, the radioactivity of the P81 paper was measured and kinase activity data were expressed as the percent remaining kinase activity in test samples compared to vehicle (dimethyl sulfoxide) reactions. IC50 values and curve fits were obtained using Prism (GraphPad Software).
(§1) Representative compounds were tested for inhibitory activity against NEK7 and IL-1β release according to the procedures described above.

[2] = test system: IL-1β release in THP-1 cells; experiment: IL-1β release assay; assay type: cell-based; details: Homo sapiens; PMA-differentiated THP-1 cells, LPS + nigericin, cleaved IL-1β by JESS
Procedure: Approximately 1.5 million THP-1 cells were plated in each well of a 6-well TC plate and incubated with 40 nM PMA in RPMI (10% FBS, 1% Penstrep) for 24 hours. The media was then removed and cells were rested in RPMI (10% FBS, 1% Penstrep) for 24 hours after which time the media was removed and cells were pre-treated for 2 hours with various concentrations of compounds of interest (typically serial 3-fold dilution in RPMI+5% FBS, concentrations ranging from 1 μM to 0.5 nM) in RPMI (5% FBS). The media was again removed and cells were incubated with 250 ng/mL LPS and compounds of interest (concentrations as above) in RMPI (5% FBS) for 2 hours. The media was removed for a last time and cells were incubated with 20 μM nigericin and compounds of interest (concentrations as above) in Opti-MEM for 30 minutes. Cell media was then collected and the amount of cleaved IL-1β was determined using a JESS instrument (Protein Simple) and standard protocols. Cleaved Il-1β antibody was obtained from Cell Signaling (catalogue #83186S) and was used at 1:20 dilution in antibody diluent 2. Protein Simple 1× anti-Rabbit HRP secondary antibody was used along with Protein Simple luminol and peroxide for chemiluminescent detection. Primary antibody incubation time was increased from 30 minutes to 60 minutes.
as §1

Row | SMILES | IC50 [1] [µM] | IC50 [2] [µM]
1 | CN1C[C@@H]2CN(Cc3ccc(NC(=O)Nc4ccc(Oc5ccnc6[nH]cc(Cl)c56)cc4F)cc3C(F)(F)F)C[C@@H]2C1 [Example I-15, 1-(4-((3-chloro-1H-pyrrolo[2,3-b]pyridin-4-yl)oxy)-2-fluorophenyl)-3-(4-(((3aR,6aS)-5-methylhexahydropyrrolo[3,4-c]pyrrol-2(1H)-yl)methyl)-3-(trifluoromethyl)phenyl)urea] | 0.2 to 0.5 | –
2 | CN1CCN(Cc2ccc(NC(=O)Nc3ccc(Oc4ccnc5[nH]cc(Cl)c45)cc3F)cc2Cl)CC1 [Example I-30, 1-(4-((3-chloro-1H-pyrrolo[2,3-b]pyridin-4-yl)oxy)-2-fluorophenyl)-3-(3-chloro-4-((4-methylpiperazin-1-yl)methyl)phenyl)urea] | 0.5 to 2 | –
3 | CN1CCN(Cc2ccc(NC(=O)Nc3ccc(Oc4ccnc5[nH]cc(Cl)c45)cc3F)cc2C(F)(F)F)C2(CC2)C1 [Example I-20, 1-(4-((3-chloro-1H-pyrrolo[2,3-b]pyridin-4-yl)oxy)-2-fluorophenyl)-3-(4-((7-methyl-4,7-diazaspiro[2.5]octan-4-yl)methyl)-3-(trifluoromethyl)phenyl)urea] | > 2 | –
4 | CCN1CCN(Cc2ccc(NC(=O)Nc3ccc(Oc4ccnc5[nH]cc(Cl)c45)cc3F)cc2C(F)(F)F)CC1 [Example I-37, 1-(4-((3-chloro-1H-pyrrolo[2,3-b]pyridin-4-yl)oxy)-2-fluorophenyl)-3-(4-((4-ethylpiperazin-1-yl)methyl)-3-(trifluoromethyl)phenyl)urea] | – | < 0.05
5 | CC(=O)N1CCN(Cc2ccc(NC(=O)Nc3ccc(Oc4ccnc5[nH]cc(Cl)c45)cc3F)cc2C(F)(F)F)CC1 [Example I-49, 1-(4-((4-acetylpiperazin-1-yl)methyl)-3-(trifluoromethyl)phenyl)-3-(4-((3-chloro-1H-pyrrolo[2,3-b]pyridin-4-yl)oxy)-2-fluorophenyl)urea] | > 2 | –
6 | CN1CCCN(Cc2ccc(NC(=O)Nc3ccc(Oc4ccnc5[nH]cc(Cl)c45)cc3F)cc2C(F)(F)F)CC1 [Example I-33, 1-(4-((3-chloro-1H-pyrrolo[2,3-b]pyridin-4-yl)oxy)-2-fluorophenyl)-3-(4-((4-methyl-1,4-diazepan-1-yl)methyl)-3-(trifluoromethyl)phenyl)urea] | 0.5 to 2 | –
7 | Cc1c[nH]c2nccc(Oc3ccc(NC(=O)Nc4ccc(OC5CCN(C)CC5)c(C(F)(F)F)c4)c(F)c3)c12 [Example I-63, 1-(2-fluoro-4-((3-methyl-1H-pyrrolo[2,3-b]pyridin-4-yl)oxy)phenyl)-3-(4-((1-methylpiperidin-4-yl)oxy)-3-(trifluoromethyl)phenyl)urea] | < 0.2 | –
8 | CN1CCN(Cc2ccc(NC(=O)Nc3ccc(Oc4ccnc5[nH]cc(Cl)c45)cc3F)cc2C(F)(F)F)CC12CC2 [Example I-60, 1-(4-((3-chloro-1H-pyrrolo[2,3-b]pyridin-4-yl)oxy)-2-fluorophenyl)-3-(4-((4-methyl-4,7-diazaspiro[2.5]octan-7-yl)methyl)-3-(trifluoromethyl)phenyl)urea] | > 2 | –
9 | CN1CCN(Cc2ncc(NC(=O)Nc3ccc(Oc4ccnc5[nH]cc(Cl)c45)cc3F)cc2C(F)(F)F)CC1 [Example I-46, 1-(4-((3-chloro-1H-pyrrolo[2,3-b]pyridin-4-yl)oxy)-2-fluorophenyl)-3-(6-((4-methylpiperazin-1-yl)methyl)-5-(trifluoromethyl)pyridin-3-yl)urea] | 0.5 to 2 | –
10 | CN1CCC(Oc2ccc(NC(=O)Nc3ccc(Oc4ccnc5[nH]cc(Cl)c45)cc3F)cc2C(F)(F)F)C(F)C1 (stereo not shown) [Example I-66, 1-(4-((3-chloro-1H-pyrrolo[2,3-b]pyridin-4-yl)oxy)-2-fluorophenyl)-3-(4-((3-fluoro-1-methylpiperidin-4-yl)oxy)-3-(trifluoromethyl)phenyl)urea] | 0.5 to 2 | –
11 | O=C(Nc1ccc(CN2CCN(CCF)CC2)c(C(F)(F)F)c1)Nc1ccc(Oc2ccnc3[nH]cc(Cl)c23)cc1F [Example I-50, 1-(4-((3-chloro-1H-pyrrolo[2,3-b]pyridin-4-yl)oxy)-2-fluorophenyl)-3-(4-((4-(2-fluoroethyl)piperazin-1-yl)methyl)-3-(trifluoromethyl)phenyl)urea] | 0.5 to 2 | –
12 | CN1CCN(Cc2ccc(NC(=O)Nc3ccc(Oc4ccnc5[nH]cc(Cl)c45)cc3F)cc2C2CC2)CC1 [Example I-26, 1-(4-((3-chloro-1H-pyrrolo[2,3-b]pyridin-4-yl)oxy)-2-fluorophenyl)-3-(3-cyclopropyl-4-((4-methylpiperazin-1-yl)methyl)phenyl)urea] | 0.5 to 2 | –
13 | CCN1CCC(Oc2ccc(NC(=O)Nc3ccc(Oc4ccnc5[nH]cc(Cl)c45)cc3F)cc2C(F)(F)F)CC1 [Example I-64, 1-(4-((3-chloro-1H-pyrrolo[2,3-b]pyridin-4-yl)oxy)-2-fluorophenyl)-3-(4-((1-ethylpiperidin-4-yl)oxy)-3-(trifluoromethyl)phenyl)urea] | < 0.2 | –
14 | CN1CCN(C2CC(F)(F)c3cc(NC(=O)Nc4ccc(Oc5ccnc6[nH]cc(Cl)c56)cc4F)ccc32)CC1 (stereo not shown) [Example I-67, 1-(4-((3-chloro-1H-pyrrolo[2,3-b]pyridin-4-yl)oxy)-2-fluorophenyl)-3-(3,3-difluoro-1-(4-methylpiperazin-1-yl)-2,3-dihydro-1H-inden-5-yl)urea] | > 2 | –
15 | O=C(Nc1ccc(OC2CCN(C3COC3)CC2)c(C(F)(F)F)c1)Nc1ccc(Oc2ccnc3[nH]cc(Cl)c23)cc1F [Example I-48, 1-(4-((3-chloro-1H-pyrrolo[2,3-b]pyridin-4-yl)oxy)-2-fluorophenyl)-3-(4-((1-(oxetan-3-yl)piperidin-4-yl)oxy)-3-(trifluoromethyl)phenyl)urea] | > 2 | –
16 | Cc1c[nH]c2nccc(Oc3ccc(NC(=O)Nc4cnc(OC5CCN(C)CC5)c(C(F)(F)F)c4)c(F)c3)c12 [Example I-61, 1-(2-fluoro-4-((3-methyl-1H-pyrrolo[2,3-b]pyridin-4-yl)oxy)phenyl)-3-(6-((1-methylpiperidin-4-yl)oxy)-5-(trifluoromethyl)pyridin-3-yl)urea] | < 0.2 | –
17 | O=C(Nc1ccc(CN2CCC(F)(F)CC2)c(C(F)(F)F)c1)Nc1ccc(Oc2ccnc3[nH]cc(Cl)c23)cc1F [Example I-47, 1-(4-((3-chloro-1H-pyrrolo[2,3-b]pyridin-4-yl)oxy)-2-fluorophenyl)-3-(4-((4,4-difluoropiperidin-1-yl)methyl)-3-(trifluoromethyl)phenyl)urea] | > 2 | –
18 | Cc1cn(-c2ccc(NC(=O)Nc3ccc(Oc4ccnc5[nH]cc(Cl)c45)cc3F)cc2C(F)(F)F)cn1 [Example I-32, 1-(4-((3-chloro-1H-pyrrolo[2,3-b]pyridin-4-yl)oxy)-2-fluorophenyl)-3-(4-(4-methyl-1H-imidazol-1-yl)-3-(trifluoromethyl)phenyl)urea] | > 2 | –
19 | O=C(Nc1ccc(CN2CCNCC2)c(C(F)(F)F)c1)Nc1ccc(Oc2ccnc3[nH]cc(Cl)c23)cc1F [Example I-55, 1-(4-((3-chloro-1H-pyrrolo[2,3-b]pyridin-4-yl)oxy)-2-fluorophenyl)-3-(4-(piperazin-1-ylmethyl)-3-(trifluoromethyl)phenyl)urea] | 0.2 to 0.5 | –
20 | CN1CCN(Cc2cc(NC(=O)Nc3ccc(Oc4ccnc5[nH]cc(Cl)c45)cc3F)cc(C(F)(F)F)c2)CC1 [Example I-65, 1-(4-((3-chloro-1H-pyrrolo[2,3-b]pyridin-4-yl)oxy)-2-fluorophenyl)-3-(3-((4-methylpiperazin-1-yl)methyl)-5-(trifluoromethyl)phenyl)urea] | 0.5 to 2 | –
21 | CN(C)C1CCN(Cc2ccc(NC(=O)Nc3ccc(Oc4ccnc5[nH]cc(Cl)c45)cc3F)cc2C(F)(F)F)CC1 [Example I-57, 1-(4-((3-chloro-1H-pyrrolo[2,3-b]pyridin-4-yl)oxy)-2-fluorophenyl)-3-(4-((4-(dimethylamino)piperidin-1-yl)methyl)-3-(trifluoromethyl)phenyl)urea] | > 2 | –
22 | CN1CCN(Cc2ccc(NC(=O)Nc3ccc(Oc4ccnc5[nH]cc(Cl)c45)cc3F)cc2OC(F)(F)F)CC1 [Example I-62, 1-(4-((3-chloro-1H-pyrrolo[2,3-b]pyridin-4-yl)oxy)-2-fluorophenyl)-3-(4-((4-methylpiperazin-1-yl)methyl)-3-(trifluoromethoxy)phenyl)urea] | < 0.2 | –
